Reference: US20020182232A9, “Cosmetic composition comprising at least one ingredient chosen from compounds of formula (I) and salts thereof, use thereof as colouring agent, and novel compounds of formulae (IIa), (IIIa), (IVa), (Va), and (VIa), and salts thereof” (priority 2000, published 2002)

How the values were obtained:
[1] = Photochemical stability (SUNTEST CPS, colour difference before/after); type: physicochemical; settings: compacted pure compound, SUNTEST CPS one hour, 765 watts/m^2; UV-unstable when ΔE >6
Procedure: 4/Photochemical Stability
The UV stability was carried out by leaving the compacted pure test compound (100 bar, FAP crucible) in the SUNTEST CPS for one hour. The SUNTEST CPS is an apparatus sold by Heraeus. […] The apparatus was used at 765 watts/m^2 and emits UVA, UVB, and visible light over a range of 300 to 800 nm.
The difference in colour ΔE before and after the SUNTEST was measured by colorimetry.
The compound was considered as UV-unstable when the ΔE was >6.

[2] = Bleeding: ability to dissolve in a dispersion medium (optical density of supernatant); type: physicochemical; settings: supernatant absorbance 400 to 800 nm, bleeds when O.D. >1.5; for Bleeding in water, O.D.: 1% by weight compound in water + 1% Polysorbate 20; for Bleeding in oil (triglycerides), O.D.: 1% by weight compound in caprylic/capric acid triglycerides
Procedure: 3/Bleeding: Ability to Dissolve in a Dispersion Medium
A dispersion was prepared comprising 1% by weight of test compound in an oil (caprylic/capric acid triglycerides).
A dispersion was also prepared comprising 1% by weight of test compound in a mixture of water and 1% by weight of wetting agent (Polysorbate 20).
The mixture was stirred for 10 minutes using a magnetic bar. 10 g of dispersion were weighed out and placed in centrifuge tubes. This material was centrifuged for 30 minutes at 3000 rpm.
The supernatant liquid was taken up and the optical density was determined by measuring the absorbence on a spectrophotometer from 400 to 800 nm, at a speed of 240 nm/min.
The compound was considered to bleed when the optical density was greater than 1.5.

Row | SMILES | Photochemical stability ΔE [1] | Bleeding in water, O.D. [2] | Bleeding in oil (triglycerides), O.D. [2] | melting point [°C]
1 | COc1ccc2ccc3oc4c(c3c2c1)C(=O)c1ccccc1C4=O [2-methoxydinaphtho-(2,1-b:2′,3′-d)furan-8,13-dione] | ΔE = 0.28 | O.D. = 0.30 |  | 
2 | O=C1c2ccccc2C(=O)c2c1oc1ccc3cc(Br)ccc3c21 [3-bromodinaphtho(2,1-b:-2′,3′-d)furan-8,13-dione] | ΔE = 2.61 | O.D. = 0.03 | O.D. = 0.92 | 
3 | COc1ccc2c(ccc3oc4c(c32)C(=O)c2ccccc2C4=O)c1 [3-methoxydinaphtho-(2,1-b:2′,3′-d)furan-8,13-dione] | ΔE = 0.81 | O.D. = 0.04 | O.D. = 0.88 | 292.1
4 | CCOc1cc2c3c(oc2c2ccccc12)C(=O)c1ccccc1C3=O [5-ethoxydinaphtho(1,2-b:2′,3′-d)furan-7,12-dione] | ΔE = 0.24 | O.D. = 0.27 |  | 
5 | O=C1c2ccccc2C(=O)c2c1oc1cc(O)c3ccccc3c21 [5-hydroxydinaphtho(2,1-b:2′,3′-d)furan-8,13-dione] | ΔE = 0.10 | O.D. = 0.16 |  | 
6 | O=C1c2ccccc2C(=O)c2c1oc1c2ccc2ccccc21 [Dinaphtho(1,2-b:2′,3′-d)furan-7,12-dione, dinaphtho(1,2-b:2′,3′-d)furan-7,12-dione] | ΔE = 3.91 | O.D. = 0.13 |  | 
7 | O=S(=O)([O-])c1ccc(N=Nc2c(O)ccc3cc(S(=O)(=O)[O-])ccc23)cc1.[Na+].[Na+] [FD&C Yellow No. 6, reference compound] | ΔE = 10.06 | O.D. = 0.58 |  | 

Next, values leading:

Row | Photochemical stability ΔE [1] | Bleeding in water, O.D. [2] | Bleeding in oil (triglycerides), O.D. [2] | melting point [°C] | SMILES
8 | ΔE = 1.32 | O.D. = 0.23 |  |  | O=C1c2ccccc2C(=O)c2c1oc1c2ccc2ccc(O)cc21 [2-Hydroxy-dinaphtho(1,2-b:2′,3′-d)furan-7,12-dione]
9 | ΔE = 1.36 | O.D. = 0.02 |  |  | O=C1c2ccccc2C(=O)c2c1oc1c2cc(Cl)c2ccccc21 [5-chlorodinaphtho-(1,2-b:2′,3′-d)furan-7,12-dione]
10 | ΔE = 0.91 | O.D. = 0.29 |  | 173.9 | CCCCCCOc1cc2c3c(oc2c2ccccc12)C(=O)c1ccccc1C3=O [5-hexyloxydinaphtho-(1,2-b:2′,3′-d)furan-7,12-dione]
11 | ΔE = 0.81 | O.D. = 0.03 |  |  | CC(C)Oc1cc2c3c(oc2c2ccccc12)C(=O)c1ccccc1C3=O [5-isopropyloxydinaphtho-(1,2-b:2′,3′-d)furan-7,12-dione]
12 | ΔE = 0.23 | O.D. = 0.01 |  |  | O=C1c2ccccc2C(=O)c2c1oc1ccc3ccccc3c21 [Dinaphtho(2,1-b:2′,3′-d)furan-8,13-dione, dinaphtho(2,1-b:2′,3′-d)furan-8,13-dione]
13 | ΔE = 6.63 | O.D. = 0.08 |  |  | O=C(O)c1nn(-c2ccc(S(=O)(=O)O)cc2)c(O)c1N=Nc1ccc(S(=O)(=O)O)cc1 [FD&C Yellow No. 5, reference compound]
